The results in this text go back to patent US20250250284A1, “MACROCYCLE COMPOUNDS USEFUL AS KRAS INHIBITORS” (Hoffmann-La Roche Inc., priority 2022, published 2025).

Experiment [1] deals with KRAS G12D binding to BRAF (Homo sapiens (Human), UniProt P01116+P62937, G12D). The experiment in a line: KRAS-BRAF with CYPA (500 nM) interaction assay (TR-FRET), G12D. Conditions: GMPPNP loaded 6His-KRAS, GST-BRAF RBD, 3 hours. The protocol:
(§1) KRAS-BRAF with CYPA (500 nM) Interaction Assay
(§2) In this example, TR-FRET was also used to measure the compound or compound-CYPA dependent disruption of the KRAS G12C-BRAF complex. This protocol was also used to measure disruption of KRAS G12D or KRAS G12V binding to BRAF by a compound of the invention, respectively. In assay buffer containing 25 mM HEPES PH=7.4 (4-(2-hydroxyethyl)-1-piperazineethanesulfonic acid, Thermo, 15630080), 0.002% Tween20, 0.1% BSA, 100 mM NaCl, 5 mM MgCl2, 10 μM GMPPNP (Guanosine 5′-[β,γ-imido]triphosphate trisodium salt hydrate, Sigma, G0635), tagless CYPA, GMPPNP loaded 6His-KRAS proteins, and GST-BRAF^RBD were mixed in a well of a 384-well assay plate at final concentrations of 50 nM, 6.25 nM and 1 nM, respectively. Compound was present in plate wells as a 16-point 3-fold dilution series starting at a final concentration of 10 μM and incubated for 3 hours. A mixture of MAb Anti-6His-XL665 (Cisbio, 61HISXLB) and Mab anti-GST-TB cryptate (Cisbio, 61GSTTLB) was then added at a final concentration of 6.67 nM and 0.21 nM, respectively, and the plate was incubated for an additional 1.5 hours. TR-FRET signal was read on a PHERstar FSX microplate reader (Ex320 nm, Em 665/615 nm). Compounds that facilitate disruption of the KRAS-BRAF complex were identified as those eliciting a decrease in the TR-FRET ratio relative to DMSO control wells.

Experiment [2] relates to phosphorylation of ERK, KRAS G12D in AGS cells. In words: pERK inhibition assay, KRAS G12D. The format is cell-based. Conditions: Homo sapiens, 4 hours of incubation. The protocol: (§3) This assay is to measure the ability of test compounds in inhibiting the phosphorylation of ERK, the downstream signaling of KRAS G12C in NCI-H358 cells, KRAS G12D in AGS cells, and KRAS G12V in SW620. NCI-H358 (ATCC-CRL5807) cells, AGS (ATCC-CRL-1739) cells, SW620 (ATCC-CCL-227) cells were all grown and maintained using RPMI-1640 medium (Thermo Fisher Scientific) with 10% fetal bovine serum and 1% penicillin/streptomycin. On the day prior to compound addition, cells were plated in tissue culture-treated 96 well plates (Corning-3699) at a density of 30,000 cell/well, 20,000 cell/well, 30,000 cell/well for NCI-H358, AGS and SW620 respectively, and allowed for attachment overnight. Diluted compounds were then added in a final concentration of 0.5% DMSO. After 4 hours of incubation, the medium was removed, 100 μL of 4% formaldehyde was added, and the assay plates were incubated at room temperature for 20 minutes. The plates were then washed once with phosphate buffered saline (PBS), and permeabilized with 100 μL of chilled methanol for 10 minutes. Non-specific antibody binding to the plates was blocked using 50 μL 1×BSA blocking buffer (Thermo-37520, 10-fold dilution by Phosphate-Buffered Saline Tween (PBST) for at least 1 hour at room temperature.
(§4) The amount of phosphor-ERK was determined using an antibody specific for phosphorylated form of ERK. Primary antibody (pERK, CST-4370, Cell Signaling Technology) was diluted 1:300 in blocking buffer, with 50 μL aliquoted to each well, and incubated overnight at 4° C. Cells was washed five times for 5 minutes with PBST. Secondary antibody (HRP-linked anti-rabbit IgG, CST-7074, Cell Signaling Technology) was diluted 1:1000 in blocking buffer, and 50 μL was added to each well and incubated 1-2 hrs at room temperature. Cells was washed 5 times for 5 minutes with PBST, 100 μL TMB ELISA substrate (abcam-ab171523) were added and gently shake for 20 minutes. 50 μL stop solution (abcam-ab171529) were added, and then read the signal (OD450) by EnVision.
(§5) IC50 was determined by fitting a 4-parameter sigmoidal concentration response model.

Experiment [3] relates to SW620 cells. The experiment in a line: Cell viability assay (Cell Counting Kit-8), KRAS G12V. The format is cell-based. Conditions: Homo sapiens, SW-620, 72 hrs incubation, CCK-8. The protocol: (§6) The purpose of this cellular assay was to determine the effects of test compounds on the proliferation of human cancer cell lines NCI-H358 (ATCC-CRL5807) cells, AGS (ATCC-CRL-1739) cells, SW620 (ATCC-CCL-227) over a 3-day treatment period by quantifying the amount of NADPH present at endpoint using Cell Counting Kit-8.
(§7) Cells were seeded at 5,000 cells/well (NCI-H358), 2,000 cells/well (AGS) 2,000 cells/well (SW620) in 96-well assay plates (Corning-3699) and incubated overnight. On the day of the assay, diluted compounds were then added in a final concentration of 0.5% DMSO. After 72 hrs incubation, a tenth of the volume of cell counting kit 8 (Dnjindo-CK04) was added into each well. Read the signal (OD450 minus OD650) using EnVision after 2 hrs incubation. IC50 was determined by fitting a 4-parameter sigmoidal concentration response model.

For experiment [4], the system named is phosphorylation of ERK, KRAS G12V in SW620. In words: pERK inhibition assay, KRAS G12V. It counts as cell-based. The settings on record: Homo sapiens, SW-620; SW620 cells, 4 hours of incubation. As to the method: as §3, §4, §5
The test system of experiment [5] is NCI-H358 cells. The experiment in a line: Cell viability assay (Cell Counting Kit-8), KRAS G12C. The format is cell-based. Conditions: Homo sapiens, 72 hrs incubation, CCK-8. The protocol: as §6, §7
The test system of experiment [6] is AGS cells. The experiment in a line: Cell viability assay (Cell Counting Kit-8), KRAS G12D. The settings on record: Homo sapiens, 72 hrs incubation, CCK-8. It counts as cell-based. As to the method: as §6, §7
A general note: Tetrazolium assays rely on reduction of a dye to a coloured formazan, in cell work by metabolically active cells.

Experiment [7] concerns the target KRAS G12V binding to BRAF (Homo sapiens (Human), UniProt P01116+P62937, G12V). In words: KRAS-BRAF with CYPA (500 nM) interaction assay (TR-FRET), G12V. Conditions: GMPPNP loaded 6His-KRAS, GST-BRAF RBD, 3 hours. The protocol: as §1, §2
In experiment [8] the test system is phosphorylation of ERK, KRAS G12C in NCI-H358 cells. The experiment in a line: pERK inhibition assay, KRAS G12C. It counts as cell-based. The settings on record: Homo sapiens, 4 hours of incubation. As to the method:
as §3, §4, §5

Experiment [9] has as its target KRAS G12C-BRAF complex (Homo sapiens (Human), UniProt P01116+P62937, G12C). The experiment in a line: KRAS-BRAF with CYPA (500 nM) interaction assay (TR-FRET), G12C. Conditions: GMPPNP loaded 6His-KRAS, GST-BRAF RBD, 3 hours. The format is binding. As to the method: as §1, §2

The term IC50 denotes the concentration needed to halve the response being measured. A low value points to inhibition by little substance.

A value given as a limit tells only on which side of the number the result lay.

Chain of KRAS G12V binding to BRAF (P01116-2 other isoform, or with tags, fused parts or gaps G12V): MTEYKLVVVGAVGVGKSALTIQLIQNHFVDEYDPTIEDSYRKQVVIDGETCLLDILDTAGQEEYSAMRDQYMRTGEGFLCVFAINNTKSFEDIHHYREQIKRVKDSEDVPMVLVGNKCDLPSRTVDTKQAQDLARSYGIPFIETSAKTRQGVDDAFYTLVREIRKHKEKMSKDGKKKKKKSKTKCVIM
Chain of KRAS G12V binding to BRAF (P62937 whole entry): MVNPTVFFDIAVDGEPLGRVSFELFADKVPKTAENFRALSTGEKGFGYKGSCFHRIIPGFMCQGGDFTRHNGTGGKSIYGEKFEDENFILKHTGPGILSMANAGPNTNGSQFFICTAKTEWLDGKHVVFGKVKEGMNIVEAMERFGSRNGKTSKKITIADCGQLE
Chain of KRAS G12D binding to BRAF (P01116-2 other isoform, or with tags, fused parts or gaps G12D): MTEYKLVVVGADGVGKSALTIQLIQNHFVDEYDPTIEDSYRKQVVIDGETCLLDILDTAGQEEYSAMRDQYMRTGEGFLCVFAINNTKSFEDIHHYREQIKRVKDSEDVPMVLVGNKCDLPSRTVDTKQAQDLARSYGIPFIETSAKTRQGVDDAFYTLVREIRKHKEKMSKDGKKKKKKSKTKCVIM
Chain of KRAS G12D binding to BRAF (P62937 whole entry): as the sequence (P62937 whole entry) above
Chain of KRAS G12C-BRAF complex (P01116-2 other isoform, or with tags, fused parts or gaps G12C): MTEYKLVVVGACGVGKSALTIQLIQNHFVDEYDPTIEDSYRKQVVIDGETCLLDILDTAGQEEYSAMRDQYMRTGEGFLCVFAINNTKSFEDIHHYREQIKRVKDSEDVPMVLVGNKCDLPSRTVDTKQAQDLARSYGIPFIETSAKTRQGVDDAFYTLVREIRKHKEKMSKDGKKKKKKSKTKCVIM
Chain of KRAS G12C-BRAF complex (P62937 whole entry): as the sequence (P62937 whole entry) above

As for `CO[C@@H](C)c1ncc(N2CCN(C)CC2)cc1-c1c2c3c(F)c(ccc3n1CC(F)(F)F)-c1csc(n1)C[C@H](NC(=O)[C@H]1C[C@@H]1C)C(=O)N1CCC[C@H](N1)C(=O)OCC(C)(C)C2` (atropisomer, axis not shown; (M)) [Example 10, (1S,2S)—N-[(7S,13S)-25-fluoro-(20M)-20-[2-[(1S)-1-methoxyethyl]-5-(4-methylpiperazin-1-yl)-3-pyridyl]-17,17-dimethyl-8,14-dioxo-21-(2,2,2-trifluoroethyl)-15-oxa-4-thia-9,21,27,28-tetrazapentacyclo[17.5.2.1^2,5.1^9,13.0^22,26]octacosa-1(25),2,5(28),19,22(26),23-hexaen-7-yl]-2-methyl-cyclopropanecarboxamide], the IC50 in [1] is 0.02 µM; in [2] it was 0.011 µM; in experiment [3], 0.003 µM; in experiment [4], 0.002 µM; in experiment [5], 0.012 µM; in experiment [6] it was 0.013 µM. The IC50 in [7] was 0.013 µM; in experiment [8], 0.017 µM; in experiment [9], 0.009 µM.
On to `CO[C@@H](C)c1ncc(N2CCN(C)CC2)cc1C1=C2CC(C)(C)COC(=O)[C@@H]3CCCN(N3)C(=O)[C@@H](NC(=O)[C@H]3C[C@@H]3C)Cc3nc(cs3)-c3ccc(c2c3)C1` (single isomer, unassigned) [Example A122, reference compound], for which the IC50 in [1] was 0.124 µM; in experiment [2], 0.001 µM; in experiment [3], under 0.001 µM; in experiment [4], under 0.001 µM; in experiment [5] it was under 0.001 µM; in experiment [6] it was 0.001 µM. For the same compound, the IC50 was 0.025 µM in experiment [7], 0.002 µM in experiment [8] and 0.013 µM in [9].
